Literature values in publication PMC4360375 (Journal of Medicinal Chemistry, 2015).

Tested on: GABA uptake, rat synaptosome
Details: literature data set; ref 10.1021/jm00064a005; cited from earlier work

| SMILES | pIC50 |
| --- | --- |
| O=C(O)[C@@H]1CCCN(CCC=C(c2ccccc2)c2ccccc2)C1 [(R)-SK&F-89976-A, OC(=O)[C@@H]1CCCN(C1)CC\C=C(\c1ccccc1)/c1ccccc1] | 6.959 |
| Cc1ccsc1C(=CCCN1CCC[C@H](C(=O)O)C1)c1sccc1C [(S)-Tiagabine, s1ccc(C)c1\C(=C\CCN1C[C@H](CCC1)C(O)=O)\c1sccc1C] | 6.658 |
| Cc1ccsc1C(=CCCN1CCC=C(C(=O)O)C1)c1sccc1C [An_1993_30, s1ccc(C)c1\C(=C\CCN1CC(=CCC1)C(O)=O)\c1sccc1C] | 6.854 |
| Cc1ccccc1/C(=C\CCN1CCC[C@@H](C(=O)O)C1)c1sccc1C [An_1993_31, s1ccc(C)c1/C(=C/CCN1C[C@@H](CCC1)C(O)=O)/c1ccccc1C] | 7.097 |
| Cc1ccccc1/C(=C\CCN1CCC[C@H](C(=O)O)C1)c1sccc1C [An_1993_32, s1ccc(C)c1/C(=C/CCN1C[C@H](CCC1)C(O)=O)/c1ccccc1C] | 6.42 |
| Cc1ccccc1/C(=C\CCN1CCC=C(C(=O)O)C1)c1sccc1C [An_1993_33, s1ccc(C)c1/C(=C/CCN1CC(=CCC1)C(O)=O)/c1ccccc1C] | 6.886 |
| Cc1ccccc1C(=CCCN1CCC[C@@H](C(=O)O)C1)c1ccccc1C [An_1993_34, OC(=O)[C@@H]1CCCN(C1)CC\C=C(\c1ccccc1C)/c1ccccc1C] | 7.097 |
| O=C(O)C1=CCCN(CC/C=C(\c2ccccc2)c2cccs2)C1 [An_1993_36, s1cccc1/C(=C/CCN1CC(=CCC1)C(O)=O)/c1ccccc1] | 6.577 |
| Cc1ccsc1/C(=C/CCN1CCC=C(C(=O)O)C1)c1ccc(Cl)cc1Cl [An_1993_37, Clc1cc(Cl)ccc1\C(=C/CCN1CC(=CCC1)C(O)=O)\c1sccc1C] | 6.495 |
| Cc1ccsc1/C(=C/CCN1CCC=C(C(=O)O)C1)c1cc(Cl)cc(Cl)c1 [An_1993_38, Clc1cc(cc(Cl)c1)/C(=C\CCN1CC(=CCC1)C(O)=O)/c1sccc1C] | 5.73 |
| Cc1ccsc1/C(=C/CCN1CCC[C@@H](C(=O)O)C1)c1cccs1 [An_1993_40, s1ccc(C)c1\C(=C\CCN1C[C@@H](CCC1)C(O)=O)\c1sccc1] | 7.222 |
| Cc1ccsc1/C(=C/CCN1CCC[C@H](C(=O)O)C1)c1cccs1 [An_1993_41, s1ccc(C)c1\C(=C\CCN1C[C@H](CCC1)C(O)=O)\c1sccc1] | 6.161 |
| Cc1ccsc1/C(=C/CCN1CCC=C(C(=O)O)C1)c1cccs1 [An_1993_42, s1ccc(C)c1\C(=C\CCN1CC(=CCC1)C(O)=O)\c1sccc1] | 6.959 |
| Cc1cc(Cl)ccc1/C(=C\CCN1CCC[C@@H](C(=O)O)C1)c1sccc1C [An_1993_44, Clc1cc(C)c(cc1)\C(=C/CCN1C[C@@H](CCC1)C(O)=O)\c1sccc1C] | 6.959 |
| Cc1cc(Cl)ccc1/C(=C\CCN1CCC=C(C(=O)O)C1)c1sccc1C [An_1993_45, Clc1cc(C)c(cc1)\C(=C/CCN1CC(=CCC1)C(O)=O)\c1sccc1C] | 6.523 |
| Cc1ccsc1/C(=C/CCN1CCC[C@@H](C(=O)O)C1)c1c(C)cccc1C [An_1993_46, s1ccc(C)c1/C(=C/CCN1C[C@@H](CCC1)C(O)=O)/c1c(cccc1C)C] | 6.602 |
| Cc1ccc(/C(=C\CCN2CCC[C@@H](C(=O)O)C2)c2sccc2C)c(C)c1 [An_1993_47, s1ccc(C)c1/C(=C/CCN1C[C@@H](CCC1)C(O)=O)/c1ccc(cc1C)C] | 6.585 |
| Cc1ccsc1/C(=C/CCN1CCC=C(C(=O)O)C1)c1ccc(Cl)cc1 [An_1993_48, Clc1ccc(cc1)/C(=C\CCN1CC(=CCC1)C(O)=O)/c1sccc1C] | 6.071 |
| Cn1cccc1/C(=C/CCN1CCC=C(C(=O)O)C1)c1ccccc1 [An_1993_49, OC(=O)C=1CN(CCC=1)CC\C=C(/c1ccccc1)\c1n(ccc1)C] | 6.886 |

Same assay, conditions: literature data set; ref 10.1021/jm981027k; cited from earlier work

| SMILES | pIC50 |
| --- | --- |
| Cc1ccsc1C(=NOCCN1CCC[C@@H](C(=O)O)C1)c1sccc1C [An_1999/3_12, s1ccc(C)c1\C(=N\OCCN1C[C@@H](CCC1)C(O)=O)\c1sccc1C] | 7.398 |
| Cc1csc(/C(=N/OCCN2CCC[C@@H](C(=O)O)C2)c2ccccc2C)c1 [An_1999/3_20, s1cc(cc1/C(=N/OCCN1C[C@@H](CCC1)C(O)=O)/c1ccccc1C)C] | 6.108 |
| Cc1csc(/C(=N/OCCN2CCC[C@H](C(=O)O)C2)c2ccccc2C)c1 [An_1999/3_21, s1cc(cc1/C(=N/OCCN1C[C@H](CCC1)C(O)=O)/c1ccccc1C)C] | 5.062 |
| Cc1csc(/C(=N\OCCN2CCC[C@@H](C(=O)O)C2)c2ccccc2C)c1 [An_1999/3_22, s1cc(cc1/C(=N\OCCN1C[C@@H](CCC1)C(O)=O)/c1ccccc1C)C] | 6.585 |
| Cc1csc(/C(=N\OCCN2CCC[C@H](C(=O)O)C2)c2ccccc2C)c1 [An_1999/3_23, s1cc(cc1/C(=N\OCCN1C[C@H](CCC1)C(O)=O)/c1ccccc1C)C] | 5.917 |
| Cc1ccccc1/C(=N/OCCN1CCC[C@@H](C(=O)O)C1)c1sccc1C [An_1999/3_39, s1ccc(C)c1/C(=N\OCCN1C[C@@H](CCC1)C(O)=O)/c1ccccc1C] | 7.155 |
| Cc1ccccc1/C(=N\OCCN1CCC[C@@H](C(=O)O)C1)c1sccc1C [An_1999/3_40, s1ccc(C)c1/C(=N/OCCN1C[C@@H](CCC1)C(O)=O)/c1ccccc1C] | 7.046 |
| Cc1ccccc1C(=COCCN1CCC[C@@H](C(=O)O)C1)c1ccccc1C [An_1999/3_45, O(\C=C(\c1ccccc1C)/c1ccccc1C)CCN1C[C@@H](CCC1)C(O)=O] | 7.699 |
| O=C(O)[C@@H]1CCCN(CCOC=C(c2ccccc2)c2ccccc2)C1 [An_1999/3_47, O(\C=C(\c1ccccc1)/c1ccccc1)CCN1C[C@@H](CCC1)C(O)=O] | 7.066 |
| O=C(O)[C@H]1CCCN(CCON=C(c2ccccc2)c2ccccc2)C1 [An_1999/3_61, O(\N=C(\c1ccccc1)/c1ccccc1)CCN1C[C@H](CCC1)C(O)=O] | 6.377 |
| Cc1ccccc1C(=NOCCN1CCC[C@@H](C(=O)O)C1)c1ccccc1C [An_1999/3_62, O(\N=C(\c1ccccc1C)/c1ccccc1C)CCN1C[C@@H](CCC1)C(O)=O] | 7.155 |
| Cc1ccccc1C(=NOCCN1CCC[C@H](C(=O)O)C1)c1ccccc1C [An_1999/3_63, O(\N=C(\c1ccccc1C)/c1ccccc1C)CCN1C[C@H](CCC1)C(O)=O] | 6.886 |
| Cc1ccccc1C(=NOCCN1CCC=C(C(=O)O)C1)c1ccccc1C [An_1999/3_64, O(\N=C(\c1ccccc1C)/c1ccccc1C)CCN1CC(=CCC1)C(O)=O] | 7.222 |
| O=C(O)[C@@H]1CCCN(CCO/N=C(\c2ccc(F)cc2F)c2cc(F)ccc2F)C1 [An_1999/3_67, Fc1cc(F)ccc1/C(=N\OCCN1C[C@@H](CCC1)C(O)=O)/c1cc(F)ccc1F] | 7.301 |
| O=C(O)[C@@H]1CCCN(CCON=C(c2ccc(F)cc2F)c2ccc(F)cc2F)C1 [An_1999/3_68, Fc1cc(F)ccc1\C(=N\OCCN1C[C@@H](CCC1)C(O)=O)\c1ccc(F)cc1F] | 7 |
| Cc1ccccc1/C(=C/OCCN1CCC[C@@H](C(=O)O)C1)c1sccc1C [An_1999/3_69, s1ccc(C)c1/C(=C\OCCN1C[C@@H](CCC1)C(O)=O)/c1ccccc1C] | 7.77 |

| SMILES | pIC50 |
| --- | --- |
| Cc1ccccc1C(=COCCN1CCC=C(C(=O)O)C1)c1ccccc1C [An_1999/3_70, O(\C=C(\c1ccccc1C)/c1ccccc1C)CCN1CC(=CCC1)C(O)=O] | 7.585 |
| Cc1ccccc1/C(=C\OCCN1CCC[C@@H](C(=O)O)C1)c1cccc(F)c1 [An_1999/3_71, Fc1cc(ccc1)/C(=C/OCCN1C[C@@H](CCC1)C(O)=O)/c1ccccc1C] | 7.523 |
| Cc1ccccc1/C(=C\OCCN1CCC=C(C(=O)O)C1)c1ccccc1F [An_1999/3_72, Fc1ccccc1/C(=C/OCCN1CC(=CCC1)C(O)=O)/c1ccccc1C] | 7.699 |
| O=C(O)[C@@H]1CCCN(CCO/C=C(\c2ccccc2)c2ccccc2Cl)C1 [An_1999/3_73, Clc1ccccc1\C(=C\OCCN1C[C@@H](CCC1)C(O)=O)\c1ccccc1] | 7.921 |
| O=C(O)[C@@H]1CCCN(CCON=C(c2ccccc2Cl)c2ccccc2Cl)C1 [An_1999/3_74, Clc1ccccc1\C(=N\OCCN1C[C@@H](CCC1)C(O)=O)\c1ccccc1Cl] | 7.398 |
| O=C(O)[C@@H]1CCCN(CCO/N=C(/c2cccc(F)c2)c2ccccc2F)C1 [An_1999/3_75, Fc1ccccc1\C(=N/OCCN1C[C@@H](CCC1)C(O)=O)\c1cc(F)ccc1] | 6.658 |
| Cc1ccccc1/C(=C/OCCN1CCC[C@@H](C(=O)O)C1)c1cccc(F)c1 [An_1999/3_76, Fc1cc(ccc1)/C(=C\OCCN1C[C@@H](CCC1)C(O)=O)/c1ccccc1C] | 7.301 |
| Cc1cc(F)ccc1C(=COCCN1CCC[C@@H](C(=O)O)C1)c1ccc(F)cc1C [An_1999/3_77, Fc1cc(C)c(cc1)\C(=C\OCCN1C[C@@H](CCC1)C(O)=O)\c1ccc(F)cc1C] | 7.222 |
| Cc1ccccc1/C(=C/OCCN1CCC=C(C(=O)O)C1)c1cccc(Cl)c1 [An_1999/3_78, Clc1cc(ccc1)/C(=C\OCCN1CC(=CCC1)C(O)=O)/c1ccccc1C] | 7.222 |
| O=C(O)[C@@H]1CCCN(CCOC=C(c2ccc(F)cc2F)c2ccc(F)cc2F)C1 [An_1999/3_79, Fc1cc(F)ccc1\C(=C\OCCN1C[C@@H](CCC1)C(O)=O)\c1ccc(F)cc1F] | 6.886 |
| Cc1ccsc1C(=NOCCN1CCC[C@H](C(=O)O)C1)c1sccc1C [An_1999/3_80, s1ccc(C)c1\C(=N\OCCN1C[C@H](CCC1)C(O)=O)\c1sccc1C] | 7.097 |
| Cc1ccsc1/C(=N\OCCN1CCC[C@@H](C(=O)O)C1)c1cccs1 [An_1999/3_81, s1ccc(C)c1\C(=N/OCCN1C[C@@H](CCC1)C(O)=O)\c1sccc1] | 7.155 |
| Cc1ccccc1/C(=N/OCCN1CCC[C@H](C(=O)O)C1)c1sccc1C [An_1999/3_82, s1ccc(C)c1/C(=N\OCCN1C[C@H](CCC1)C(O)=O)/c1ccccc1C] | 7.097 |
| Cc1ccccc1/C(=N\OCCN1CCC[C@H](C(=O)O)C1)c1sccc1C [An_1999/3_83, s1ccc(C)c1/C(=N/OCCN1C[C@H](CCC1)C(O)=O)/c1ccccc1C] | 6.886 |
| Cc1cc(Cl)ccc1/C(=N/OCCN1CCC[C@@H](C(=O)O)C1)c1sccc1C [An_1999/3_84, Clc1cc(C)c(cc1)\C(=N\OCCN1C[C@@H](CCC1)C(O)=O)\c1sccc1C] | 7.046 |
| Cc1ccsc1/C(=N\OCCN1CCC[C@@H](C(=O)O)C1)c1ccc(Cl)cc1Cl [An_1999/3_85, Clc1cc(Cl)ccc1\C(=N\OCCN1C[C@@H](CCC1)C(O)=O)\c1sccc1C] | 7.523 |
